Test results taken from patent US9561259B2, “Cyclosporin analogs” (priority 2010, dated 2017).

Experiments:
[1] = tested on: Spleen cells from C57BL/6 (responder) and BALB/c (stimulator); assay: Mixed Lymphocyte Reaction (MLR) assay; type: cell-based, mice; conditions: five days, 3H-thymidine incorporation
Procedure: The MLR assay is another means of estimating the immunosuppressive potential of test compounds. Female C57BL/6 and BALB/c mice, 6-8 weeks of age, were obtained from the Frederick Cancer Research and Development Center of the National Cancer Institute (Frederick, Md.). Spleens were harvested aseptically from all mice and single cell suspensions were prepared by disaggregating the cells with frosted glass slides, allowing the debris to settle, and washing the cells twice with complete medium. Complete medium consisted of RPMI 1640 medium containing 25 mM HEPES buffer (HyClone, Logan, Utah) supplemented with 10% heat-inactivated fetal bovine serum (FBS; Atlanta Biologicals, Lawrenceville, Ga.), 100 μg/mL streptomycin, 100 U/mL penicillin G, 0.25 μg/mL amphotericin B (HyClone), 2 mM L-glutamine dipeptide (HyClone), and 2×10^−5 M 2-mercaptoethanol (Sigma). Cells were washed twice and resuspended in complete medium. Cell counts were performed using a Beckman Coulter Z-1 particle counter (Fullerton, Calif.). Cell viability was determined by propidium iodide (PI) staining using an Accuri C6 flow cytometer (Ann Arbor, Mich.).
Spleen cells from C57BL/6 (H-2^b) and BALB/c (H-2^d) were used as responder (R) and stimulator (S) cells, respectively. Cells were plated in triplicate in 96-well flat microtiter plates (Costar, Cambridge, Mass.) such that each well contained 2×10^5 R and 8×10^5 S cells. Cultures were incubated in the absence or presence of various concentrations of Cs A, test compounds, or medium at 37° C. in humidified 5% CO2 for five days, pulsed with ^3H-thymidine (^3H-TdR) for the final 16 hours of incubation, and harvested using a Brandel 96-well cell harvester (Gaithersburg, Md.). Proliferation was measured by counting the radioactivity on filter mats in a Wallac 1450 Microbeta TriLux scintillation counter (Turku, Finland). […] These control cultures were incubated for 3 days under the same conditions as those described for the MLR; lymphoproliferation was determined in the same manner as described above.

[2] = Epimerization in MeOH at 50° C. (500 MHz NMR)
Description: The proton attached to the sarcosine center (adjacent to the sulfur atom) appears at ˜δ 5.9 in the R-isomer whilst in the S-isomer it moves downfield to ˜δ6.5.

| Substance | IC50 [1] [nM] | Epimerization (%) ([2]; time 0 days) | Epimerization (%) ([2]; time 30 days) | Epimerization (%) ([2]; time 35 days) | Epimerization (%) ([2]; time 6 days) |
| --- | --- | --- | --- | --- | --- |
| [(R)-(3-(4-methyl-piperazin-1-yl)-propylthio)-Sar]^3 Cyclosporin A [Example 3] | 3300 | 0 | 2 | – | – |
| [(R)-(3-ethylisopropylamino-propylthio)-Sar]^3 Cyclosporin A [Example 2] | 2800 | 0 | – | 0 | – |
| [(R)-(3-morpholin-4-yl-propylthio)-Sar]^3 Cyclosporin A [Example 1] | 3000 | 0 | 0.2 | – | 0 |
